Reference: patent US20240374595A1, “SUBSTITUTED 1,1'-BIPHENYL COMPOUNDS, ANALOGUES THEREOF, AND METHODS USING SAME” (Arbutus Biopharma Corporation, priority 2018, published 2024)

Target: PD-L1 (Homo sapiens (Human), UniProt Q9NZQ7)
Assay: PD-L1 HTRF assay (PD-1/PD-L1 interaction)
Format: binding
Conditions: PD-L1 His 6 nM, PD-1 Fc 6 nM; inhibitors 3-fold diluted from 20 μM
Protocol: PD-L1 small molecule inhibitors were diluted by 3-fold starting from 20 μM and a final concentration of 0.001 μM and added to the well. PD-1 Fc protein was added at the final concentration of 6 nM. PD-L1 His protein, PD-L1 small molecule inhibitors, and PD1 Fc proteins were added to the well in this order, with each 5 μl volume, and were incubated for 15 minutes at room temperature. […] The plate was read using PerkinElmer Envision plate reader and data was analyzed by Prism 6 software.

PD-L1, sequence (Q9NZQ7 19-238): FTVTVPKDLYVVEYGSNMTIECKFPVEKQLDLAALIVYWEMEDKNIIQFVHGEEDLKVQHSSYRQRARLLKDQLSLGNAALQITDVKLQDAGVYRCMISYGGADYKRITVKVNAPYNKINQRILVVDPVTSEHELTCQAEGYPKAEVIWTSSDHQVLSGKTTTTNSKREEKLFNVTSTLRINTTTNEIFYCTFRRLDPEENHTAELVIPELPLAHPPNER

`Cc1c(COc2ccc(C3=NCCCN3C)c(OCc3cccc(C#N)c3)c2)cccc1-c1ccccc1` [Example 11, 3-[[2-(1-Methyl-5,6-dihydro-4H-pyrimidin-2-yl)-5-[(2-methyl-3-phenyl-phenyl)methoxy]phenoxy]methyl]benzonitrile] and `Cc1c(COc2ccc(C3=NCCN3C)c(OCc3cccc(C#N)c3)c2)cccc1-c1ccccc1` [Example 3, 3-[[2-(1-Methyl-4,5-dihydroimidazol-2-yl)-5-[(2-methyl-3-phenyl-phenyl)methoxy]phenoxy]methyl]benzonitrile] are within 1.5-fold of each other in IC50: 300 nM for the first, 320 nM for the second.

First: Cc1c(NC(=O)c2ccc(C3=NCCC(C(=O)O)N3)cn2)cccc1-c1cccc(NC(=O)c2ccc(C3=NCCC(C(=O)O)N3)cn2)c1C (centres unmarked) [Example 35, 2-[6-[[3-[3-[[5-(4-Carboxy-1,4,5,6-tetrahydropyrimidin-2-yl)pyridine-2-carbonyl]amino]-2-methyl-phenyl]-2-methyl-phenyl]carbamoyl]-3-pyridyl]-1,4,5,6-tetrahydropyrimidine-4-carboxylic acid]
Second: Cc1c(COc2cc(OCc3cncc(C#N)c3)c(C3=NCC(O)CN3)cc2Cl)cccc1-c1cccc(OCC(CO)c2ccccc2)c1C (centres unmarked) [Example 26, 5-[[4-Chloro-5-[[3-[3-(3-hydroxy-2-phenyl-propoxy)-2-methyl-phenyl]-2-methyl-phenyl]methoxy]-2-(5-hydroxy-1,4,5,6-tetrahydropyrimidin-2-yl)phenoxy]methyl]pyridine-3-carbonitrile]
The IC50 of the first is 25-fold lower: 0.3 nM for the first, 7.4 nM for the second. The first is the more potent here.

`Cc1c(NC(=O)c2ccc(CNCCO)cn2)cccc1-c1cccc(NC(=O)c2ccc(CN(C)CCO)cn2)c1C` [Example 38, 5-(((2-hydroxyethyl)-(methyl)amino)methyl)-N-(3′-(5-(((2-hydroxyethyl)amino)methyl)picolinamido)-2,2′-dimethyl-[1,1′-biphenyl]-3-yl)picolinamide] and `Cc1c(COc2cc(OCc3cncc(C#N)c3)c(C3=NCC(OCC(=O)O)CN3)cc2Cl)cccc1-c1cccc(OCCCN2CCC(O)CC2)c1C` (centres unmarked) [Example 21, 2-[[2-[5-Chloro-2-[(5-cyano-3-pyridyl)methoxy]-4-[[3-[3-[3-(4-hydroxy-1-piperidyl)propoxy]-2-methyl-phenyl]-2-methyl-phenyl]methoxy]phenyl]-1,4,5,6-tetrahydropyrimidin-5-yl]oxy] acetic acid] are within 1.5-fold of each other in IC50: 0.9 nM for the first, 0.8 nM for the second.

Compared with `Cc1c(COc2cc(OCc3cncc(C#N)c3)c(C3=NC(C(=O)O)CCN3)cc2Cl)cccc1-c1cccc(OCCCN2CCC(O)CC2)c1C` (centres unmarked) [Example 18, 2-[5-Chloro-2-[(5-cyano-3-pyridyl)methoxy]-4-[[3-[3-[3-(4-hydroxy-1-piperidyl)propoxy]-2-methyl-phenyl]-2-methyl-phenyl]methoxy]phenyl]-1,4,5,6-tetrahydropyrimidine-4-carboxylic acid], `Cc1c(NC(=O)c2ccc(CO)cn2)cccc1-c1cccc(NC(=O)c2ccc(CO)cn2)c1C` [Example 32, 5-(Hydroxymethyl)-N-[3-[3-[[5-(hydroxymethyl)pyridine-2-carbonyl]amino]-2-methyl-phenyl]-2-methyl-phenyl]pyridine-2-carboxamide] is 2.7-fold higher in IC50: 1.2 nM for the first, 3.2 nM for the second. The first is the more potent here.

Compared with “5-(((1,3-dihydroxypropan-2-yl)amino)methyl)-N-(3′-(5-(((2-hydroxyethyl)amino)methyl)picolinamido)-2,2′-dimethyl-[1,1′-biphenyl]-3-yl)picolinamide [Example 36]”, `Cc1c(COc2ccc(C3=NCCCN3)c(OCc3cccc(C#N)c3)c2)cccc1-c1ccccc1` [Example 9, 3-[[5-[(2-Methyl-3-phenyl-phenyl)methoxy]-2-(1,4,5,6-tetrahydropyrimidin-2-yl)phenoxy]methyl]benzonitrile] is 380-fold higher in IC50: 0.4 nM for the first, 150 nM for the second.

Going from `COc1cc(OCc2cccc(-c3cccc(COc4cc(OC)c(CNCCO)cc4Cl)c3C)c2C)c(Cl)cc1CNCCO` [Example 31, 2,2′-((((((2,2′-Dimethyl-[1,1′-biphenyl]-3,3′-diyl)bis(methylene))bis(oxy))bis (5-chloro-2-methoxy-4,1-phenylene))bis(methylene))bis(azanediyl))bis(ethan-1-ol)] to `Cc1c(COc2ccc(-c3nccn3CCO)c(OCc3cccc(C#N)c3)c2)cccc1-c1ccccc1` [Example 7, 3-[[2-[1-(2-Hydroxyethyl)imidazol-2-yl]-5-[(2-methyl-3-phenyl-phenyl)methoxy]phenoxy]methyl]benzonitrile], the IC50 rises from 1 nM to 1800 nM (1800-fold).

Compared with `Cc1c(COc2ccc(-c3nccn3C)c(OCc3cccc(C#N)c3)c2)cccc1-c1ccccc1` [Example 4, 3-[[2-(1-methylimidazol-2-yl)-5-[(2-methyl-3-phenyl-phenyl)methoxy]phenoxy]methyl]benzonitrile], `CC(=O)NCC/N=C(\NCCNC(C)=O)c1ccc(OCc2cccc(-c3ccccc3)c2C)cc1OCc1cccc(C#N)c1` [Example 14, N-[2-[[(Z)—N-(2-Acetamidoethyl)-C-[2-[(3-cyanophenyl)methoxy]-4-[(2-methyl-3-phenyl-phenyl)methoxy]phenyl]carbonimidoyl]amino]ethyl]acetamide] is 16-fold lower in IC50: 5400 nM for the first, 330 nM for the second. The second is the more potent here.

First: CC(=O)NCc1c[nH]c(-c2ccc(OCc3cccc(-c4ccccc4)c3C)cc2OCc2cccc(C#N)c2)n1 [Example 8, N-[[2-[2-[(3-Cyanophenyl)methoxy]-4-[(2-methyl-3-phenyl-phenyl)methoxy]phenyl]-1H-imidazol-4-yl]methyl]acetamide]
Second: Cc1c(COc2cc(OCc3cncc(C#N)c3)c(C3=NCCCN3CCO)cc2Cl)cccc1-c1cccc(OCCCN2CCC(O)CC2)c1C [Example 17, 5-[[4-Chloro-2-[1-(2-hydroxyethyl)-5,6-dihydro-4H-pyrimidin-2-yl]-5-[[3-[3-[3-(4-hydroxy-1-piperidyl)propoxy]-2-methyl-phenyl]-2-methyl-phenyl]methoxy]phenoxy]methyl] pyridine-3-carbonitrile]
The IC50 of the first is 13000-fold higher: 19000 nM for the first, 1.5 nM for the second. The second is the more potent here.

First: Cc1c(NC(=O)c2ccc(CNCCO)cn2)cccc1-c1cccc(OCCCN2CCC(O)CC2)c1C [Example 33, 5-[(2-hydroxyethylamino)methyl]-N-[3-[3-[3-(4-hydroxy-1-piperidyl)propoxy]-2-methyl-phenyl]-2-methyl-phenyl]pyridine-2-carboxamide]
Second: Cc1c(COc2ccc(C3=NCC(O)CN3)c(OCc3cncc(C#N)c3)c2)cccc1-c1ccccc1 (centres unmarked) [Example 15, 5-((2-(5-Hydroxy-1,4,5,6-tetrahydropyrimidin-2-yl)-5-((2-methyl-[1,1′-biphenyl]-3-yl)methoxy)phenoxy)methyl)nicotinonitrile]
The IC50 of the first is 4.1-fold lower: 3.7 nM for the first, 15 nM for the second. The first is the more potent here.

Compared with `Cc1c(COc2ccc(C3=NCCN3)c(OCc3cccc(C#N)c3)c2)cccc1-c1ccccc1` [Example 1, 3-((2-(4,5-Dihydro-1H-imidazol-2-yl)-5-((2-methyl-[1,1′-biphenyl]-3-yl)methoxy)phenoxy)methyl)benzonitrile], `COC(=O)c1c[nH]c(-c2cc(Cl)c(OCc3cccc(-c4cccc(OCCCN5CCC(O)CC5)c4C)c3C)cc2OCc2cncc(C#N)c2)n1` [Example 20, Methyl 2-(5-chloro-2-((5-cyanopyridin-3-yl)methoxy)-4-((3′-(3-(4-hydroxypiperidin-1-yl)propoxy)-2,2′-dimethyl-[1,1′-biphenyl]-3-yl)methoxy)phenyl)-1H-imidazole-5-carboxylate] is 28-fold lower in IC50: 280 nM for the first, 10 nM for the second. The second is the more potent here.

Going from `Cc1c(COc2ccc(-c3nc(CO)c[nH]3)c(OCc3cccc(C#N)c3)c2)cccc1-c1ccccc1` [Example 5, 3-[[2-[4-(Hydroxymethyl)-1H-imidazol-2-yl]-5-[(2-methyl-3-phenyl-phenyl)methoxy]phenoxy]methyl]benzonitrile] to `Cc1c(COc2cc(OCc3cncc(C#N)c3)c(C3=NCC(O)CN3CCO)cc2Cl)cccc1-c1cccc(OCCCN2CCC(O)CC2)c1C` (centres unmarked) [Example 23], the IC50 falls from 16000 nM to 14 nM (1100-fold). The second is the more potent here.

Compared with `Cc1c(COc2cc(OCc3cncc(C#N)c3)c(C3=NC(C(=O)O)CN3)cc2Cl)cccc1-c1cccc(OCCCN2CCC(O)CC2)c1C` (centres unmarked) [Example 19, 2-[5-Chloro-2-[(5-cyano-3-pyridyl)methoxy]-4-[[3-[3-[3-(4-hydroxy-1-piperidyl)propoxy]-2-methyl-phenyl]-2-methyl-phenyl]methoxy]phenyl]-4,5-dihydro-1H-imidazole-4-carboxylic acid], `Cc1c(COc2ccc(-c3ncc[nH]3)c(OCc3cccc(C#N)c3)c2)cccc1-c1ccccc1` [Example 2, 3-[[2-(1H-Imidazol-2-yl)-5-[(2-methyl-3-phenyl-phenyl)methoxy]phenoxy]methyl] benzonitrile] is 17000-fold higher in IC50: 1.2 nM for the first, 20000 nM for the second. The first is the more potent here.

First: Cc1c(COc2ccc(C3=NCCCN3CCO)c(OCc3cccc(C#N)c3)c2)cccc1-c1ccccc1 [Example 12, 3-[[2-[1-(2-Hydroxyethyl)-5,6-dihydro-4H-pyrimidin-2-yl]-5-[(2-methyl-3-phenyl-phenyl)methoxy]phenoxy]methyl]benzonitrile]
Second: Cc1c(COc2cc(OCc3cncc(C#N)c3)c(C3=NCCN3CC(=O)O)cc2Cl)cccc1-c1cccc(OCCCN2CCC(O)CC2)c1C [Example 24, 2-[2-[5-Chloro-2-[(5-cyano-3-pyridyl)methoxy]-4-[[3-[3-[3-(4-hydroxy-1-piperidyl)propoxy]-2-methyl-phenyl]-2-methyl-phenyl]methoxy]phenyl]-4,5-dihydroimidazol-1-yl]acetic acid]
The IC50 of the first is 100-fold higher: 110 nM for the first, 1.1 nM for the second.
